Assay [1] deals with G6pc. Nature of the assay: G6pc mRNA expression (QRT-PCR) in primary mouse hepatocytes. The assay is classed as cell-based. The procedure:
The overnight-acclimated hepatocytes were washed twice with PBS (to remove any residual FBS and other additives in the TRL hepatocyte maintenance medium, pretreated with control (water) or selenium Compounds CDE (150 or 300 ppb of each selenium compound) in DMEM/F12 media supplemented with 10% fetal bovine serum (FBS) for 24 hr. These cells were then washed twice with PBS and incubated with the same dose of selenium Compounds CDE (150 or 300 ppb) in the presence or absence of insulin (10 or 100 nM, Sigma), 0.1 mM 8-CPT (Sigma) or 0.5 μM Dex (Sigma) in serum-free and glucose-free DMEM media (Invitrogen) supplemented with 20 mM lactose (Sigma) and 2 mM pyruvate (Sigma) and 15 mM HEPES (Sigma) for another 6 hours. After treatments, cell media were collected and subjected to glucose assay and toxicological studies of lactate dehydrogenase (LDH) and cells were collected for RNA and protein analysis.
Total RNA from these cells was isolated using Trizol (Invitrogen) according to the Manufacturer's protocol and then incubated with DNase I to remove any potential contaminated genomic DNA. Then RNA samples were subjected to real-time PCR analysis using the Applied-Bioscience's RT kit and predesigned Taqman probes (Invitrogen), as described previously (Lan et al EMBO J 2003). Three to four samples were analyzed in each treatment group. […]

The test system of assay [2] is Igf1r. Nature of the assay: Igf1r mRNA expression (QRT-PCR) in AML-12 cells. The format is cell-based, mouse. To be noted: insulin alone, 6 hours, without 8-CPT/Dex. The procedure:
For RNA analysis of insulin receptor (Insr), insulin like growth factor receptor (Igf1r), and Glucose-6-Phosphatase (G6pc), AML-12 cells were amplified in ITS, Dex and FBS-containing DMEM/F12 media, and cultured on 24-well (6.7×10^4 cells/well) plates in 10% FBS ITS-free DMEM/F12 media with or without Dex overnight. These cells were treated with control (water) or various compounds (diluted in 10% FBS ITS-free DMEM/F12 media with or without Dex) for 6 hours, 24 hours, or 48 hours.
In some experiments, the AML-12 cells were washed twice with PBS after the compound treatments for 24 hours, and then incubated with selenium compounds (150 or 300 ppb of each compound) in the presence or absence of insulin (10 or 100 nM), 0.1 mM 8-CPT (Sigma), or 0.5 μM Dex in serum-free, glucose/phenol red-free DMEM media supplemented with 20 mM lactose and 2 mM pyruvate, and 15 mM HEPES (glucose-production media) for another 6 hours. After treatments, cell media were collected and subjected to glucose assays using Abcam glucose assay kit according to the manufacturer's protocol. […]
Total RNA from these cells was isolated using Trizol (Invitrogen) according to the manufacturer's protocol, and then incubated with DNase I to remove any potential contaminated genomic DNA. […] Three to six samples were analyzed in each treatment group. […]

Take “insulin: insulin (10 or 100 nM, Sigma) used as comparator and cotreatment”: the “8-CPT/Dex-induced G6pc expression” value in assay [1] (insulin 10 and 100 nM, vs 8-CPT/Dex group) is recorded as “significantly decreased 8-CPT/Dex-induced G6pc expression”. For the same substance, in assay [1] (insulin alone (10 and 100 nM), 6 hours), the G6pc expression result is “significantly inhibited G6pc expression”. Also, in assay [2], the Igf1r expression result was “did not increase”.

The values above are taken from patent publication US9642874B2, “Compositions of selenoorganic compounds and methods of use thereof” (Alltech, Inc., priority 2014, dated 2017).
